Assay results: PMC11823609, “Advancements in the fight against globally distributed OXA-48 carbapenemase: evaluating the new generation of carbapenemase inhibitors” (Antimicrobial Agents and Chemotherapy, 2025)
In brackets after ≈: the same amount, converted by molar mass. Where two headings read alike, the source gives them in different places.

How the values were obtained:
Assay in all cases: microbe, parasite or virus in culture
E. coli TG1 = format: cell-based; conditions: Escherichia coli, β-lactamase inhibitor alone
Procedure: (§1) The MICs of each of the individual compounds (antibiotics or inhibitors) were also determined. The MICs were determined for the E. coli isogenic expressing OXA-48 (and both OXA-48 and CTX-M-14) to assess their activity against the carbapenemase; MICs were also determined for the 18 Enterobacterales clinical isolates in order to evaluate the new inhibitors against also their resistance concomitant mechanisms. The MICs were determined in triplicate experiments, and the EUCAST 13.0 clinical breakpoints were followed (http://www.eucast.org/clinical_breakpoints).
(§2) For comparative evaluation of the activity of each inhibitor alone against the carbapenemase OXA-48, all inhibitors (at 4 mg/L) were tested in the presence of a carbapenem (ertapenem, adequate substrate) and a cephalosporin (ceftazidime, poor substrate) as reporter substrates. This prevented any possible masking effect produced by the different partner antibiotics. These assays were also performed with isogenic transformants and clinical isolates.

[1] = tested on: E. coli HB4 ΔompC/F (CTX-M-14 + OXA-48); format: cell-based, Escherichia coli; conditions: for MIC: Escherichia coli
Text: (§3) The E. coli HB4 strain was used to gain a more complete perspective, by evaluating the involvement in resistance of a low permeability background with the carbapenemase OXA-48, as well as coproduction of an ESBL and the carbapenemase; thus, the ESBL CTX-M-14 and OXA-48 were cloned together and separately into E. coli HB4. The characteristics of these strains and transformants are summarized in Table S1, and the cloning procedures are outlined in the supplemental methods.
as §1, §2

[2] = tested on: E. coli HB4 ΔompC/F (CTX-M-14); format: cell-based, Escherichia coli; conditions: Escherichia coli
Text: as §3, §1, §2

E. coli HB4 ΔompC/F = format: cell-based, Escherichia coli; conditions: Escherichia coli
Text: as §3, §1, §2

[3] = tested on: E. cloacae strain 231 (MLST 171, No ESBL); format: cell-based; conditions: Enterobacter cloacae
Procedure: (§4) The efficacy of these new BLIs was also evaluated against 18 genetically diverse WGS-characterized collection of OXA-48-positive Enterobacterales recovered as part of the Carbapenem-resistant Enterobacterales Genome Database Project (https://genomes.cnag.cat/incredble) listed in Table S2 ([13]). Combinations of clinical isolates (five pairs of Klebsiella pneumoniae, two pairs of Enterobacter cloacae, and two pairs of E. coli) were chosen for analysis: (i) nine strains carrying ESBLs; and (ii) nine strains (genetically closer available strains) without ESBLs.
as §1, §2

[4] = tested on: E. cloacae strain 235 (MLST 171, ESBL); format: cell-based; conditions: Enterobacter cloacae
Procedure: as §4, §1, §2

[5] = tested on: E. cloacae strain 272 (MLST 78, ESBL); format: cell-based; conditions: Enterobacter cloacae
Procedure: as §4, §1, §2

[6] = tested on: E. cloacae strain 281 (MLST 78, No ESBL); format: cell-based; conditions: Enterobacter cloacae
Procedure: as §4, §1, §2

[7] = tested on: E. coli strain 103 (MLST 10, ESBL); format: cell-based; conditions: Escherichia coli
Procedure: as §4, §1, §2

[8] = tested on: E. coli strain 177 (MLST 131, ESBL); format: cell-based; conditions: Escherichia coli
Procedure: as §4, §1, §2

[9] = tested on: E. coli strain 224 (MLST 127, No ESBL); format: cell-based; conditions: Escherichia coli; E. coli 224; β-lactamase inhibitor alone; read-out: MIC
Procedure: as §4, §1, §2

[10] = tested on: E. coli strain 264 (MLST 131, No ESBL); format: cell-based; conditions: Escherichia coli; E. coli 264; β-lactamase inhibitor alone; read-out: MIC
Procedure: as §4, §1, §2

[11] = tested on: K. pneumoniae strain 125 (MLST 307, ESBL); format: cell-based; conditions: Klebsiella pneumoniae
Procedure: as §4, §1, §2

[12] = tested on: K. pneumoniae strain 170 (MLST 307, No ESBL); format: cell-based; conditions: Klebsiella pneumoniae; K. pneumoniae 170; β-lactamase inhibitor alone; read-out: MIC
Procedure: as §4, §1, §2

[13] = tested on: K. pneumoniae strain 19 (MLST 11, ESBL); format: cell-based; conditions: Klebsiella pneumoniae
Procedure: as §4, §1, §2

[14] = tested on: K. pneumoniae strain 194 (MLST 392, No ESBL); format: cell-based; conditions: Klebsiella pneumoniae; K. pneumoniae 194; β-lactamase inhibitor alone; read-out: MIC
Procedure: as §4, §1, §2

[15] = tested on: K. pneumoniae strain 23 (MLST 392, ESBL); format: cell-based; conditions: Klebsiella pneumoniae
Procedure: as §4, §1, §2

[16] = tested on: K. pneumoniae strain 237 (MLST 147, No ESBL); format: cell-based; conditions: Klebsiella pneumoniae; K. pneumoniae 237; β-lactamase inhibitor alone; read-out: MIC
Procedure: as §4, §1, §2

[17] = tested on: K. pneumoniae strain 238 (MLST 15, ESBL); format: cell-based; conditions: Klebsiella pneumoniae
Procedure: as §4, §1, §2

[18] = tested on: K. pneumoniae strain 413 (MLST 147, ESBL); format: cell-based; conditions: Klebsiella pneumoniae
Procedure: as §4, §1, §2

[19] = tested on: K. pneumoniae strain 497 (MLST 11, No ESBL); format: cell-based; conditions: Klebsiella pneumoniae; K. pneumoniae 497; β-lactamase inhibitor alone; read-out: MIC
Procedure: as §4, §1, §2

[20] = tested on: K. pneumoniae strain 71 (MLST 15, No ESBL); format: cell-based; conditions: Klebsiella pneumoniae; K. pneumoniae 71; β-lactamase inhibitor alone; read-out: MIC
Procedure: as §4, §1, §2

[21] = E. cloacae 231, β-lactamase inhibitor alone, read-out: MIC
[22] = E. cloacae 281, β-lactamase inhibitor alone, read-out: MIC

SMILES	MIC (E. coli TG1) [µg/mL]	MIC [1] [µg/mL]	MIC [2] [µg/mL]	MIC (E. coli HB4 ΔompC/F) [µg/mL]	MIC [4] [µg/mL]	MIC [5] [µg/mL]	MIC [7] [µg/mL]	MIC [8] [µg/mL]	MIC [9] [µg/mL]	MIC [10] [µg/mL]	MIC [11] [µg/mL]	MIC [12] [µg/mL]	MIC [13] [µg/mL]	MIC [14] [µg/mL]	MIC [15] [µg/mL]	MIC [16] [µg/mL]	MIC [17] [µg/mL]	MIC [18] [µg/mL]	MIC [19] [µg/mL]	MIC [20] [µg/mL]	also measured
NCCONC(=O)[C@@H]1CC[C@@H]2CN1C(=O)N2OS(=O)(=O)O [Nacubactam, nacubactam]	2 (≈ 6.17 µM)	2 (≈ 6.17 µM)	2 (≈ 6.17 µM)	2 (≈ 6.17 µM)	8	4	2	8	8	1	≥ 128	4	≥ 128	2	2	1	16	≥ 128	≥ 128	16	MIC [3, 21]: 1 µg/mL; MIC [6, 22]: 4 µg/mL
NCCN[C@H]1CC[C@H](CC(=O)N[C@H]2Cc3cccc(C(=O)O)c3OB2O)CC1 [Taniborbactam, taniborbactam]	≥ 128	≥ 128	≥ 128	≥ 128	≥ 128	≥ 128	≥ 128	≥ 128	≥ 128	≥ 128	≥ 128	≥ 128	≥ 128	≥ 128	≥ 128	≥ 128	≥ 128	≥ 128	≥ 128	≥ 128	decrease of ertapenem MIC with BLI ([1]; E. coli HB4 coproducing CTX-M-14 and OXA-48, BLI 4 mg/L): 8 fold; MIC [3]: ≥ 128 µg/mL; MIC [6]: ≥ 128 µg/mL
O=C(O)C[C@@H]1CC[C@H](NC(=O)Cc2cccs2)B(O)O1 [Vaborbactam, vaborbactam]	≥ 128	≥ 128	≥ 128	≥ 128	≥ 128	≥ 128	≥ 128	≥ 128	≥ 128	≥ 128	≥ 128	≥ 128	≥ 128	≥ 128	≥ 128	≥ 128	≥ 128	≥ 128	≥ 128	≥ 128	MIC [3, 21]: ≥ 128 µg/mL; MIC [6, 22]: ≥ 128 µg/mL
